Counter-ions that a name gives are not always drawn.
Experiments:
[1] = molecular target: T1, Adrenergic β2 (Homo sapiens, UniProt P07550); assay: Adrenergic β2 mediated cAMP production in H292 cells (AlphaScreen); format: cell-based; conditions: Intrinsic Activity as a fraction relative to the maximum activity of formoterol
T1 construct: endogenous in cells; host or cells: H292 cells
Experimental: Adrenergic β2 Mediated cAMP Production
H292 cells were grown in 225 cm2 flasks incubator at 37° C., 5% CO2 in RPMI medium containing, 10% (v/v) FBS (foetal bovine serum) and 2 mM L-glutamine.
Adherent H292 cells were removed from tissue culture flasks by treatment with Accutase™ cell detachment solution for 15 minutes. Flasks were incubated for 15 minutes in a humidified incubator at 37° C., 5% CO2. Detached cells were re-suspended in RPMI media (containing 10% (v/v) FBS and 2 mM L-glutamine) at 0.05×10^6 cells per mL. 5000 cells in 100 μL were added to each well of a tissue-culture-treated 96-well plate and the cells incubated overnight in a humidified incubator at 37° C., 5% CO2. The culture media was removed and cells were washed twice with 100 μL assay buffer and replaced with 50 μL assay buffer (HBSS solution containing 10 mM HEPES pH7.4 and 5 mM glucose). Cells were rested at room temperature for 20 minutes after which time 25 μL of rolipram (1.2 mM made up in assay buffer containing 2.4% (v/v) dimethylsulphoxide) was added. Cells were incubated with rolipram for 10 minutes after which time Compound A was added and the cells were incubated for 60 minutes at room temperature. The final rolipram concentration in the assay was 300 μM and final vehicle concentration was 1.6% (v/v) dimethylsulphoxide. The reaction was stopped by removing supernatants, washing once with 100 μL assay buffer and replacing with 50 μL lysis buffer. The cell monolayer was frozen at −80° C. for 30 minutes (or overnight).
The concentration of cAMP (cyclic adenosine monophosphate) in the cell lysate was determined using AlphaScreen™ methodology. […] The AlphaScreen™ signal was measured using an EnVision spectrophotometer (Perkin-Elmer Inc.) with the recommended manufacturer's settings. cAMP concentrations were determined by reference to a calibration curve determined in the same experiment using standard cAMP concentrations. […] Intrinsic Activity was expressed as a fraction relative to the maximum activity determined for formoterol in each experiment.

[2] = Dynamic vapour sorption (DVS) analysis of crystalline material; format: physicochemical; conditions: at 80% RH, 25° C.
Experimental: Dynamic vapour sorption (DVS) analysis was performed on a Surface Measurement systems (SMS) DVS-Intrinsic moisture sorption analyser. The instrument was controlled by SMS Analysis Suite software (DVS-Intrinsic Control v1.0.0.30). Analysis of the data was performed using Microsoft Excel 2007 together DVS Standard Analysis Suite (v6.0.0.7). Sample temperature was maintained at 25° C. and the sample humidity was obtained by mixing streams of wet and dry nitrogen at a total flow rate of 200 mlmin^−1. The relative humidity was measured using a calibrated Rotronic probe (dynamic range 1-100% Relative Humidity (RH)) located close to the sample. The weight change of the sample as a function of % RH was constantly monitored by the microbalance (accuracy±0.005 mg). Typically a PXRD would be run prior to analysis. 20 mg of sample was then placed in a tared stainless steel mesh basket under ambient conditions. The sample was loaded and unloaded at 40% RH and 25° C. (typical room conditions) and the sample subjected to a graduated DVS regime over 2 cycles using the parameters shown in Table 1.

[3] = Gravimetric Vapour Sorption (GVS) of crystalline material; format: physicochemical; conditions: at 80% RH
Experimental: Gravimetric Vapour Sorption (GVS) profiles were measured using a Surface Measurements Systems Dynamic Vapour Sorption DVS-1 or a DVS Advantage instrument. The solid sample ca. 1-5 mg was placed into a glass vessel and the weight of the sample was recorded during a dual cycle step method (40 to 90 to 0 to 90 to 0% relative humidity (RH), in steps of 10% RH).

T1 sequence (P07550 whole entry): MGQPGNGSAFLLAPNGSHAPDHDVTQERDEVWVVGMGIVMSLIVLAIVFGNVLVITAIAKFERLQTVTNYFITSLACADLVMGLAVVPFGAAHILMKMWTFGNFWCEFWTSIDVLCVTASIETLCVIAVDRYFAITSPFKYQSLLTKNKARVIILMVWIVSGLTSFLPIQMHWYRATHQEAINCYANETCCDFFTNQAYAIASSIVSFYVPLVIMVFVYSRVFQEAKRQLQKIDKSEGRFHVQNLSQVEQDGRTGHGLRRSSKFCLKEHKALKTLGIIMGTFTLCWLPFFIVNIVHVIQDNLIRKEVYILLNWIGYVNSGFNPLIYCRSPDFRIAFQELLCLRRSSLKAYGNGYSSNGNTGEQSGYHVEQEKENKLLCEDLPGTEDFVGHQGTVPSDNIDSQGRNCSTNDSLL

Compound | β2 Int Act [1] | GVS mass increase [3] | other results
CCN(CC)CCN(CCNCCc1ccc(O)c2[nH]c(=O)sc12)C(=O)CCOCCc1cccc2ccccc12 [BA1, N-[2-(Diethylamino)ethyl]-N-(2-{[2-(4-hydroxy-2-oxo-2,3-dihydro-1,3-benzothiazol-7-yl)ethyl]amino}ethyl)-3-[2-(1-naphthyl)ethoxy]propanamide dihydrobromide] | 0.8 | – | –
CCN(CC)CCN(CCNCCc1ccc(O)c2[nH]c(=O)sc12)C(=O)CCOCCc1cccc(Cl)c1 [BA2, N-[2-(Diethylamino)ethyl]-N-(2-{[2-(4-hydroxy-2-oxo-2,3-dihydro-1,3-benzothiazol-7-yl)ethyl]amino}ethyl)-3-[2-(3-chlorophenyl)ethoxy]propanamide dihydrobromide] | 0.7 | – | –
O=c1[nH]c2c(O)ccc([C@@H](O)CNCCSCCCNCCc3ccccc3Cl)c2s1 [BA3, 7-[(1R)-2-({2-[(3-{[2-(2-Chlorophenyl)ethyl]amino}propyl)thio]ethyl}amino)-1-hydroxyethyl]-4-hydroxy-1,3-benzothiazol-2(3H)-one dihydrobromide] | 0.8 | – | –
O=S(=O)([O-])c1ccccc1.O[C@](c1ccccc1)(c1cc(C[N+]23CCC(CC2)[C@@H](Oc2ccc(F)cc2)C3)on1)C1CCCCC1 [Example 2, (R)-1-[3-((R)-Cyclohexyl-hydroxy-phenyl-methyl)-isoxazol-5-ylmethyl]-3-(4-fluoro-phenoxy)-1-azonia-bicyclo[2.2.2]octane benzenesulfonate] | – | – | DVS weight increase [2]: 0.2 % (% w/w)
O[C@](c1ccccc1)(c1cc(C[N+]23CCC(CC2)[C@@H](Oc2cccc(F)c2)C3)on1)C1CCCCC1.[Cl-] [Example 3, (R)-1-[3-((R)-Cyclohexyl-hydroxy-phenyl-methyl)-isoxazol-5-ylmethyl]-3-(3-fluoro-phenoxy)-1-azonia-bicyclo[2.2.2]octane chloride] | – | – | GVS mass increase 1st cycle ([3]; 1st cycle): approximately 5%; GVS mass increase 2nd cycle ([3]; 2nd cycle): ~6.5%
O[C@](c1ccccc1)(c1cc(C[N+]23CCC(CC2)[C@@H](Oc2cccc(F)c2)C3)on1)C1CCCCC1 [Example 4, (R)-1-[3-((R)-Cyclohexyl-hydroxy-phenyl-methyl)-isoxazol-5-ylmethyl]-3-(3-fluoro-phenoxy)-1-azonia-bicyclo[2.2.2]octane 2-hydroxy-ethanesulfonate] | – | no mass increase | –
O[C@](c1ccccc1)(c1nnc(C[N+]23CCC(CC2)[C@@H](Oc2ccc(F)cc2)C3)o1)C1CCCCC1.[Br-] [Example 5, (R)-1-[5-((R)-Cyclohexyl-hydroxy-phenyl-methyl)-[1,3,4]oxadiazol-2-ylmethyl]-3-(4-fluoro-phenoxy)-1-azonia-bicyclo[2.2.2]octane bromide] | – | approximately 0.8% | –
Cc1ccc(O[C@H]2C[N+]3(Cc4cc(C(O)(c5ccccc5)c5ccccc5)no4)CCC2CC3)cc1F.[Br-] [Example 7, (R)-3-(3-Fluoro-4-methyl-phenoxy)-1-[3-(hydroxy-diphenyl-methyl)-isoxazol-5-ylmethyl]-1-azonia-bicyclo[2.2.2]octane bromide] | – | approximately 0.1% | –

Reference: patent US20110245293A1, “PHARMACEUTICAL PRODUCT COMPRISING A MUSCARINIC RECEPTOR ANTAGONIST AND A BETA-2-ADRENOCEPTOR AGONIST” (priority 2008, published 2011)
